Results on 5 molecules are retold here after PubChem BioAssay AID1963967 (Molecular Pharmacology Branch, DTP, NCI, 2024).

Molecules are shown by their SMILES. Where “and” joins values, the source holds several entries; their conditions need not be identical. Equal entries are not always repeated.

The test system of this assay is 855422-203-R-J1-PDC spheroids with HUVEC/MSC, viability. Briefly: Anticancer human tumor 855422-203-R-J1-PDC patient-derived bladder carcinoma cell line growth inhibition [PI3K]. Particulars: for viability, T/C: stronger effect = lower value. In short, it runs like this: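 Stroma-containing spheroids: tumor line, pooled-donor HUVEC, hMSC. Treatments: targeted agents with PI3K inhibitors. Dosing: clinically relevant, half-log spacing, 10 microM ceiling without known Cmax. Read-out: cell viability.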

[1] abbreviates: curve of first compound, second compound 0.0316 µM.
Setting [2] is: curve of first compound, second compound 0.1 µM.
Setting [3] is: curve of first compound, second compound 0.316 µM.
Setting [4] is: curve of first compound, second compound 1 µM.
Setting [5] is: second compound 0.0316 µM, first compound 0.0316 µM.
Where [6] appears, read: second compound 0.0316 µM, first compound 0.1 µM.
Where [7] appears, read: second compound 0.1 µM, first compound 0.0316 µM.
The mark [8] stands for this setting: second compound 0.1 µM, first compound 0.1 µM.
Where [9] appears, read: second compound 0.316 µM, first compound 0.0316 µM.
Where [10] appears, read: second compound 0.316 µM, first compound 0.1 µM.
The mark [11] stands for this setting: second compound 1 µM, first compound 0.0316 µM.
[12] abbreviates: second compound 1 µM, first compound 0.1 µM.
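Also: agents incubated with spheroids for one week before read-out.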
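For viability, T/C in this document: 100% = DMSO vehicle-treated control wells.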

As to `CC(C)n1nc(-c2ccc3oc(N)nc3c2)c2c(N)ncnc21` + CC(Nc1ncnc2nc[nH]c12)c1cc2cccc(Cl)c2c(=O)n1-c1ccccc1, the IC50 under setting [1] is 50.8 nM; the IC50 under setting [2] was determined as 50.2 nM; the IC50 under setting [3] turned out to be 46.5 nM; the IC50 under setting [4] stood at 38.7 nM; the IC50 (curve of first compound, second compound 3.16 µM) was found to be 33.4 nM; the IC50 (curve of first compound, second compound 10 µM) turned out to be 17.3 nM. In addition, the viability, T/C reads like this: (second compound 0.0316 µM, first compound 0.000316 µM) 111%; (second compound 0.0316 µM, first compound 0.001 µM) 97.1%; (second compound 0.0316 µM, first compound 0.00316 µM) 121%; (second compound 0.0316 µM, first compound 0.01 µM) 98.6%; under setting [5], 74.3%; under setting [6], 15.9%. Moreover, the viability, T/C is 110% (second compound 0.1 µM, first compound 0.000316 µM); 108% (second compound 0.1 µM, first compound 0.001 µM); 107% (second compound 0.1 µM, first compound 0.00316 µM); 98.1% (second compound 0.1 µM, first compound 0.01 µM); 74% under setting [7]; 14.4% under setting [8]. Further, the viability, T/C is 100% (second compound 0.316 µM, first compound 0.000316 µM); 106% (second compound 0.316 µM, first compound 0.001 µM); 102% (second compound 0.316 µM, first compound 0.00316 µM); 99.3% (second compound 0.316 µM, first compound 0.01 µM); 69.1% under setting [9]; 12.1% under setting [10]. Also, the viability, T/C is 110% (second compound 1 µM, first compound 0.000316 µM); 91.2% (second compound 1 µM, first compound 0.001 µM); 100% (second compound 1 µM, first compound 0.00316 µM); 96.9% (second compound 1 µM, first compound 0.01 µM); 57.6% under setting [11]; 14.1% under setting [12]. Besides, the viability, T/C is 95% (second compound 3.16 µM, first compound 0.000316 µM); 91% (second compound 3.16 µM, first compound 0.001 µM); 93.9% (second compound 3.16 µM, first compound 0.00316 µM); 78.7% (second compound 3.16 µM, first compound 0.01 µM); 52.2% (second compound 3.16 µM, first compound 0.0316 µM); 12.9% (second compound 3.16 µM, first compound 0.1 µM). The viability, T/C is, setting by setting: (second compound 10 µM, first compound 0.000316 µM) 81.5%; (second compound 10 µM, first compound 0.001 µM) 81%; (second compound 10 µM, first compound 0.00316 µM) 80.3%; (second compound 10 µM, first compound 0.01 µM) 59%; (second compound 10 µM, first compound 0.0316 µM) 38.2%; (second compound 10 µM, first compound 0.1 µM) 13.6%.
For `CCCS(=O)(=O)Nc1ccc(F)c(C(=O)c2c[nH]c3ncc(-c4ccc(Cl)cc4)cc23)c1F`, the viability, T/C was 96.7% [middle of 4 runs] (compound 0.1 µM); 108% (2×) and 99.2% and 92.2% (compound 0.316 µM); 87.6% [middle of 4 runs] (compound 1 µM); 65.7% [middle of 4 runs] (compound 3.16 µM); 0.53% [middle of 4 runs] (compound 10 µM). Also, the IC50 (curve of compound) is 4.16 µM [middle of 4 runs].
As for `CC1(C)CCC(CN2CCN(c3ccc(C(=O)NS(=O)(=O)c4ccc(NCC5CCOCC5)c([N+](=O)[O-])c4)c(Oc4cnc5[nH]ccc5c4)c3)CC2)=C(c2ccc(Cl)cc2)C1`, the viability, T/C was 107% [middle of 4 runs] (compound 0.0316 µM); 92.7% [middle of 4 runs] (compound 0.1 µM); 118% [middle of 4 runs] (compound 0.316 µM); 102% and 95.7% and 103% (2×) (compound 1 µM); 2.29% [middle of 4 runs] (compound 10 µM). In addition, the IC50 (curve of compound) was 4.81 µM [middle of 4 runs].
`CC1(C)CCC(Nc2ncc(C(F)(F)F)c(-c3c[nH]c4c(P(C)(C)=O)c(C#N)ccc34)n2)CN1` (stereo not drawn) + CC(Nc1ccc2c(c1)OCCn1cc(N3C(=O)OCC3C(F)F)nc1-2)C(N)=O: the IC50 (curve of first compound, second compound 0.00316 µM) is under 31.6 nM; the half-inhibitory concentration (IC50) (curve of first compound, second compound 0.01 µM) is under 31.6 nM; the IC50 under setting [1] was under 31.6 nM; the IC50 under setting [2] is under 31.6 nM; the half-inhibitory concentration (IC50) under setting [3] was under 31.6 nM; the IC50 under setting [4] was under 31.6 nM. Also, the viability, T/C was 23.7% (second compound 0.00316 µM, first compound 0.0316 µM); 25% (second compound 0.00316 µM, first compound 0.1 µM); 27.9% (second compound 0.00316 µM, first compound 0.316 µM); 31.6% (second compound 0.00316 µM, first compound 1 µM); 31.4% (second compound 0.00316 µM, first compound 3.16 µM); 3.85% (second compound 0.00316 µM, first compound 10 µM). The viability, T/C (second compound 0.01 µM, first compound 0.0316 µM) was 20.4%; the viability, T/C (second compound 0.01 µM, first compound 0.1 µM) is 21.3%; the viability, T/C (second compound 0.01 µM, first compound 0.316 µM) is 26.2%; the viability, T/C (second compound 0.01 µM, first compound 1 µM) is 25.8%; the viability, T/C (second compound 0.01 µM, first compound 3.16 µM) is 29.1%; the viability, T/C (second compound 0.01 µM, first compound 10 µM) was 3.78%. Further, the viability, T/C reads like this: under setting [5], 20.2%; under setting [6], 22.9%; (second compound 0.0316 µM, first compound 0.316 µM) 22.2%; (second compound 0.0316 µM, first compound 1 µM) 24.6%; (second compound 0.0316 µM, first compound 3.16 µM) 24.1%; (second compound 0.0316 µM, first compound 10 µM) 2.13%. Moreover, the viability, T/C runs as follows: under setting [7], 20.2%; under setting [8], 19.4%; (second compound 0.1 µM, first compound 0.316 µM) 20%; (second compound 0.1 µM, first compound 1 µM) 23.2%; (second compound 0.1 µM, first compound 3.16 µM) 21.5%; (second compound 0.1 µM, first compound 10 µM) 3.77%. Besides, the viability, T/C is 15.3% under setting [9]; 17.9% under setting [10]; 15.7% (second compound 0.316 µM, first compound 0.316 µM); 15.5% (second compound 0.316 µM, first compound 1 µM); 13.7% (second compound 0.316 µM, first compound 3.16 µM); 1.23% (second compound 0.316 µM, first compound 10 µM). Besides, the viability, T/C was 14.4% under setting [11]; 14.2% under setting [12]; 13.1% (second compound 1 µM, first compound 0.316 µM); 12.6% (second compound 1 µM, first compound 1 µM); 11.4% (second compound 1 µM, first compound 3.16 µM); 0.83% (second compound 1 µM, first compound 10 µM).
As for `C=CC(=O)N1CCN(c2nc(=O)n(-c3c(C)ccnc3C(C)C)c3nc(-c4c(O)cccc4F)c(F)cc23)C(C)C1` (stereo not drawn), the viability, T/C by setting is: (compound 0.0316 µM) 109% [middle of 4 runs]; (compound 0.1 µM) 95.2% [middle of 4 runs]; (compound 0.316 µM) 117% [middle of 4 runs]; (compound 1 µM) 108% [middle of 4 runs]; (compound 3.16 µM) 122% [middle of 4 runs]; (compound 10 µM) 121% [middle of 4 runs]. Also, the IC50 (curve of compound) is over 10000 nM.

Broadly, the IC50 is the concentration that gives 50% inhibition. For orientation: viability, T/C means the result in the treated group divided by that in the control group, in per cent.
